Reference: patent publication US7625713B2, “Process for identifying a ligand that binds to the NEP binding site for the SMR1 pentapeptide” (Institut Pasteur, priority 2000, dated 2009)

How the values were obtained:
NEP [1] = molecular target: T1, NEP (Rattus norvegicus, UniProt P07861); assay: Met-enkephalinase activity of rat spinal cord slices, Met-enkephalin RIA; assay type: biochemical; conditions: 10 μM, fresh spinal cord tissue, 20 min at 25° C.
T1 construct: incubations of membrane and fresh tissue slice preparations from nervous tissues; from tissue; host or cells: dorsal spinal cord of male Wistar rats (fresh slices or 100 000 x g membrane fraction)
T1 sequence (P07861 1-750): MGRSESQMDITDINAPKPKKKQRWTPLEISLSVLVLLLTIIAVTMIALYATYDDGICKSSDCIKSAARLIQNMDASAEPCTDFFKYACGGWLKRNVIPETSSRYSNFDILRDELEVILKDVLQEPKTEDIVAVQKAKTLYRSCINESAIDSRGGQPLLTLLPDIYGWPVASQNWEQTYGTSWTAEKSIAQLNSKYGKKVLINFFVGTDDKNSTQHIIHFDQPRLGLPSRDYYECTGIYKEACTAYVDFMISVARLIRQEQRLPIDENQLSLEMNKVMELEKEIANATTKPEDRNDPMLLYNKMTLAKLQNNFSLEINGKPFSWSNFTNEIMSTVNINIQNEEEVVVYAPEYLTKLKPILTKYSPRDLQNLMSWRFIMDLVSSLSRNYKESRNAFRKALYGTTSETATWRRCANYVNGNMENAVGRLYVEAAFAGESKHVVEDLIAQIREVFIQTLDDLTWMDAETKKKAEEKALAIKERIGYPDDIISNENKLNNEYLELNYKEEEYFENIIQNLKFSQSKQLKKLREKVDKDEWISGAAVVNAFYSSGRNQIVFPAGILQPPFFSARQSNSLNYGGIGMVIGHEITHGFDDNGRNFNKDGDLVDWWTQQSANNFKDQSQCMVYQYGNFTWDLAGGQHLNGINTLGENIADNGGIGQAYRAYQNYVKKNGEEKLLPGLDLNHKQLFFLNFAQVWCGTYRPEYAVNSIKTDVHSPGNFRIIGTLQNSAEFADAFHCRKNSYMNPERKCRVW
Description: FIG. 2-A: […] The organs are rapidly removed, dissected on ice, freed of nerve fibers and of adipose tissues and then washed in cold oxygenated glucose- and bicarbonate-containing Krebs Ringer (KRBG) solution, whose composition is the following: 120 mM NaCl-5 mM KCl-1.2 mM KH2PO4-27.5 mM NaHCO3-2.6 mM CaCl2-0.67 mM MgSO4-5.9 mM glucose. The slices of tissues are prepared either manually with the aid of a scalpel (1-2 mm thick), or mechanically with the aid of a “Tissue Chopper” (1 mm thick). Slices are then dispersed into reaction tubes where they are subjected to three successive washes in ice-cold oxygenated KRBG. […] For the experiments of analysis of the NEP peptidase activity, an ex vivo model using incubations of membrane and fresh tissue slice preparations from nervous tissues that are known to be appropriate for exploring NEP peptidase activity: i.e. the dorsal zone of rat spinal cord, was first developed. The metabolism rate of the NEP-sensitive peptides was measured using the both NEP substrates involved in the signaling of the nociceptive response: the neuropeptides Met-enkephalin and Substance P. […] (NEN, 12.5-25 nM) were used. The objective was to measure the NEP-specific endoproteolysis of these substrates. […] Furthermore, for studying the functional role of […] NO: 2), the reaction was carried out in the presence of the SMR1-peptide alone or combined with specific inhibitors of membrane peptidases which could inactivate the […] […] Herein, a competitive RIA system has been used: the quantity of radioactive antigen bound to the antibody decreases in a manner inversely proportional to the quantity of antigen contained in the standard solution or in the sample. […] The activity of enkephalinase NEP is monitored by quantification of the disappearance of the initial Met-enkephalin substrate. […] The radiolabeled antigen is iodinated Met-enkephalin (^125I-Met-Enk enkephalin) with a specific radioactivity estimated at 3000 Ci/mmol. […] After centrifugation, the bound radioactivity of the precipitate is quantified using a gamma-spectrometer.

NEP [2] = molecular target: T1, NEP; assay: Met-enkephalin hydrolysis by rat spinal cord slices and membrane preparations, RP-HPLC analysis; assay type: biochemical; conditions: 10 μM alone, spinal cord slices, 20 min at 25° C., 10 μM Met-enkephalin
Description: FIG. 2-B: […] Retention time) recovered after 20 min. incubation at 25° C. with 1 mg fresh tissue slices in a 1 ml final volume of KRBG buffer. The organs are rapidly removed, dissected on ice, freed of nerve fibers and of adipose tissues and then washed in cold oxygenated glucose- and bicarbonate-containing Krebs Ringer (KRBG) solution, whose composition is the following: 120 mM NaCl-5 mM KCl-1.2 mM KH2PO4-27.5 mM NaHCO3-2.6 mM CaCl2-0.67 mM MgSO4-5.9 mM glucose. The slices of tissues are prepared either manually with the aid of a scalpel (1-2 mm thick), or mechanically with the aid of a “Tissue Chopper” (1 mm thick). Slices are then dispersed into reaction tubes where they are subjected to three successive washes in ice-cold oxygenated KRBG. […] The organs dissected out and washed in ice-cold KRBG are homogenized at 4° C. in 10 volumes (vol./wt.) of 50 mM Tris/HCl buffered at pH 7.2, using a Teflon-glass homogenizer (3×5 sec.). […] The metabolism rate of the NEP-sensitive peptides was measured using the both NEP substrates involved in the signaling of the nociceptive response: the neuropeptides Met-enkephalin and Substance P. […] Their identification and relative quantification (peak height) are checked by continuously monitoring the UV absorbance at 254 nm of column outflow. […]

male rats = assay: Pin pain test; assay type: in vivo, rat
Description: The 3-min test session was performed 5 min after intravenous. rat tail vein administration of sialorphin or its vehicle. Naloxone (0.3 mg per kg body weight) was injected subcutaneously 15 min before sialorphin administration. Time in centre field sector (FIG. 6-C) (central square of the open-field without pin) and activity (FIGS. 6-A and 6-B) in peripheral squares (overlayed with pins) during the 3-min test session. Each value represents the mean±sem of 8 animals per group. […] Control group corresponded to pain response in vehicle-treated rats. 50 μg/kg sialorphin, 100 μg/kg sialorphin, 100 μg/kg sialorphin plus naloxone 0.3 mg/kg.
To extend the insight into the in vivo possible antinociceptive property of sialorphin through enkephalin-degrading enzyme inhibition, its effects were assessed in rat model of pain, i.e. the pin pain test, (Hebert et al. (1999) Physiology & Behavior 67, 99-105) in which the various behavioural parameters of pain responses were recorded with a 3-min cutoff time.
The in vivo activity of sialorphin was tested on the pin pain assay using male rats (350-400 g, Charles Rivers). The experimental device consists in an open-field (45×45×40 cm) which is divided into nine equal squares (150×150 mm), eight of them are peripheral and one is central. The peripheral squares are overlayed with stainless steel pins (2/cm2, length 8 mm and diameter 0.6 mm). The test consisted in placing the rat in the central square of the open-field and recording its different behaviours (cut-off time, 3 min). Two days before the pain test, the rats were familiarised with the experimental device without pins for 20 min, so as to reduce the stress linked to the spatial neophobia. All statistical analyses were carried out using the Statview 5 statistical package.

[3] = naloxone 0.3 mg per kg subcutaneous, prior to sialorphin

Row | SMILES | protection of Met-enkephalin from degradation (NEP [1]) | inhibition of Met-enkephalinase activity (Met-enkephalin degradation) (NEP [2]) | reversal of the sialorphin-effect on behavioural parameters of noxious response (male rats; [3]) | reversal of the sialorphin-effect on time in central area (male rats; [3]) | reversal of the sialorphin-effect on vocalisation parameter (male rats; [3]) | time in the central area of the open-field (male rats; sialorphin plus naloxone 0.3 mg/kg s.c. 15 min before sialorphin)
1 | CC(C)C[C@H](NP(=O)(O)O[C@@H]1O[C@@H](C)[C@H](O)[C@@H](O)[C@H]1O)C(=O)N[C@@H](Cc1c[nH]c2ccccc12)C(=O)O [Phosphoramidon, reference compound] | 96% | complete inhibition |  |  |  | 
2 | C=CCN1CC[C@]23c4c5ccc(O)c4O[C@H]2C(=O)CC[C@@]3(O)[C@H]1C5 [naloxone, reference compound] |  |  | 42-63% | 56% | 20% | 112.38 ± 17.44 s
3 | O=C(O)CNC(=O)C(CS)Cc1ccccc1 (stereo not shown) [Thiorphan] | 100% |  |  |  |  | 
